# From patent publication US20150125402A1, “ANTIMICROBIAL AGENTS” (BEDOUKIAN RESEARCH, INC., priority 2012, published 2015)
# Experiments:
# Assay type in all cases: cell-based
# Aspergillus brasiliensis = experiment: Minimum Inhibition Concentration (MIC) screen; details: strain ATTC 16404
# Protocol: (§1) To test the compounds as antimicrobial agents, the compounds were screened for activity to inhibit bacteria, yeast and mold. The Minimum Inhibition Concentration (MIC) is determined as the lowest concentration activity to inhibit the microorganism.
# Candida albicans = experiment: Minimum Inhibition Concentration (MIC) screen; details: strain ATTC 10231
# Protocol: as §1
# Escherichia coli [1] = experiment: Minimum Inhibition Concentration (MIC) screen; details: strain ATTC 10536
# Protocol: as §1
# Pseudomonas aeruginosa = experiment: Minimum Inhibition Concentration (MIC) screen; details: strain ATTC 15442
# Protocol: as §1
# Staphylococcus aureus [2] = experiment: Minimum Inhibition Concentration (MIC) screen; details: strain ATTC 6538
# Protocol: as §1
# [3] = system: Staphylococcus epidermidis; experiment: Minimum Inhibition Concentration (MIC) screen; details: strain ATTC 12228
# Protocol: as §1
# Escherichia coli [4] = experiment: Bactericidal activity in solution (Activity % Reduction); details: 2000 ppm in water at ambient temperature
# Protocol: (§2) In a second assay, compounds of this invention were screened for activity to kill bacteria in solution over a short period of time. Bactericidal activity is expressed as Activity % Reduction. All samples were tested in water at ambient temperature and at a concentration of 2000 ppm.
# Staphylococcus aureus [5] = experiment: as above; details: 2000 ppm in water at ambient temperature
# Protocol: as §2
SMILES,MIC (Aspergillus brasiliensis) [µg/mL],MIC (Candida albicans) [µg/mL],MIC (Escherichia coli [1]) [µg/mL],MIC (Pseudomonas aeruginosa) [µg/mL],MIC (Staphylococcus aureus [2]) [µg/mL],MIC [3] [µg/mL],inhibition at 2000 ppm (Escherichia coli [4]; 5 min) [%],inhibition at 2000 ppm (Escherichia coli [4]; 1 hour) [%],inhibition at 2000 ppm (Staphylococcus aureus [5]; 5 min) [%],inhibition at 2000 ppm (Staphylococcus aureus [5]; 1 hour) [%]
"CCCCC1CC(=O)C=C(C)C1 (stereo not shown) [3-Methyl-5-Butyl-2-Cyclohexenone, 3-methyl-5-butyl-2-cyclohexenone]",250,500,500,> 1000,500,1000,83.8,100,33.9,33.2
"CCCC1CC(=O)C=C(C)C1 (stereo not shown) [3-Methyl-5-Propyl-2-Cyclohexenone, 3-methyl-5-propyl-2-cyclohexenone]",500,1000,1000,> 1000,1000,> 1000,69.5,99,29.2,33.9
"CCCCC1CC(C)=CC(O)C1 (stereo not shown) [3-Methyl-5-Butyl-2-Cyclohexenol, 3-methyl-5-butyl-2-cyclohexenol]",250,125,> 1000,> 1000,125,125,34.7,88.5,28.4,39
"CCCCCCCC1CC(=O)C=C(C)C1 (stereo not shown) [3-Methyl-5-Heptyl-2-Cyclohexenone, 3-methyl-5-heptyl-2-cyclohexenone]",> 1000,> 1000,> 1000,> 1000,15.6,31.2,13.9,25,37.6,24.1
